From ChEMBL document CHEMBL1142426, “Design and synthesis of macrocyclic peptidyl hydroxamates as peptide deformylase inhibitors” (2008)
≈ marks a conversion by molar mass, not a printed value. Calls of active or inactive are those of the source. The calls are words filed in the database; no cut-off is given here.

Assays:
[1] = target: T1, Peptide deformylase (Escherichia coli) (UniProt Q9JN24); test: Inhibition of cobalt-substituted Escherichia coli PDF
T1 sequence (whole entry): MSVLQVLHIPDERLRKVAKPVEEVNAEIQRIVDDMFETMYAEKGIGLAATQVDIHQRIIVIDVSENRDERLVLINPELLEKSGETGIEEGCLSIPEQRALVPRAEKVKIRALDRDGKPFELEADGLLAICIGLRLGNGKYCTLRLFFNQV

[2] = target: T1, Peptide deformylase (Escherichia coli); test: Slow-binding inhibition of cobalt-substituted Escherichia coli PDF
[3] = tested on: Escherichia coli; test: Antimicrobial activity against Escherichia coli; assay type: functional
[4] = tested on: Bacillus subtilis; test: Antimicrobial activity against Bacillus subtilis; assay type: functional

Row | Ki [1] [µM] | Ki [2] [µM] | MIC [4] [mg/L] | MIC [3] [mg/L] | SMILES | Activity [3]
1 | 16 | 1.4 | > 24 |  | O=C(C[C@H]1CCCCCCCCCNC(=O)[C@@H]2CCCN2C1=O)NO | inactive
2 | > 20 |  |  |  | CC(C)(C)[C@@H]1NC(=O)[C@@H](CC(=O)NO)NC(=O)CCCCCCCCCNC1=O | 
3 | 0.109 | 0.00033 |  |  | CC(C)(C)[C@@H]1NC(=O)[C@@H](CN(O)C=O)CCCCCCCCCNC1=O | 
4 | 0.21 | 0.0044 | 2 (≈ 5.41 µM) | > 24 | CC(C)(C)[C@@H]1NC(=O)[C@@H](CC(=O)NO)CCCCCCCCCNC1=O | 
